Results published in BigSolDB 2.1.

COc1ccc([C@@H]2CC(=O)c3c(O)cc(O[C@@H]4O[C@H](CO[C@@H]5O[C@@H](C)[C@H](O)[C@@H](O)[C@H]5O)[C@@H](O)[C@H](O)[C@H]4O)cc3O2)cc1O
Conditions	solubility (mole fraction)
in PEG-400, 298.15 K	0.00633
in PEG-400, 303.15 K	0.00749
in PEG-400, 313.15 K	0.00985
in PEG-400, 323.15 K	0.0124
in PEG-400, 333.15 K	0.0152

solubility (mole fraction)
Conditions	in ethanol	in isopropanol	in n-butanol	in propylene glycol	in water
298.15 K	3.45e-05	1.53e-05	0.000315	0.000535	1.47e-07
303.15 K	3.95e-05	1.87e-05	0.000359	0.000647	1.52e-07
313.15 K	5.27e-05	2.61e-05	0.000461	0.000886	1.61e-07
323.15 K	6.56e-05	3.82e-05	0.000582	0.00114	1.7e-07
333.15 K	8.45e-05	5.86e-05	0.000715	0.00158	1.8e-07
